{"source": "paper PMC4501006", "about": "“Preliminary Characterization and In Vivo Studies of Structurally Identical ^18F- and ^125I-Labeled Benzyloxybenzenes for PET/SPECT Imaging of β-Amyloid Plaques” (Scientific Reports, 2015)", "assay": "In vivo biodistribution in normal ICR mice", "settings": "i.v.", "method": "Histograms of brain and intestine uptake were presented in Fig. 6 for comparison, while detailed data concerning the in vivo biodistribution in normal ICR mice were collected in Table S3 in Supplementary information. […] [^125I]7a and [^125I]12a were rapidly cleared from the normal brain, with only small amounts of radioactivity remaining at 60 min post-injection (0.55% ID/g for [^125I]7a and 0.37% ID/g for [^125I]12a). […] In addition, no significant deiodination was observed (less than 0.5% ID in the thyroid at 60 min).\nAs the specific activity of ^18F-labeled ligands (about 60 GBq/μmol) was slightly lower than that of corresponding no-carrier-added ^125I-labeled ligands (81 GBq/μmol), the impact of specific activity on pharmacokinetics was studied. In vivo biodistribution of radioactivity after injection of carrier-added [^125I]7a with equal specific activity to corresponding [^18F]7a (60 GBq/μmol) was conducted in normal ICR mice through the same procedure.\nA structural model of an Aβ fiber (PDB ID: 2LMO) derived from solid state NMR was downloaded from the RCSB Protein Data Bank (www.rcsb.org/pdb). Geometric optimization was performed using Gaussian 09 at the B3LYP/6–31 G and 3-21G levels in the water phase. Molecular docking was performed using AutoDock4.0, and the docking results were graphed with VMD 1.9.1 software. SYBYL-X 1.1 software was used to predict the binding affinities with previously constructed 3D-QSAR models. All reagents for chemical synthesis were used as purchased without further purification. [^125I]NaI was purchased from PerkinElmer and ^18F^– was kindly provided by the Chinese PLA General Hospital. ^1H and ^13C NMR spectra were recorded on a Bruker Avance III NMR spectrometer (400 MHz for ^1H; 101 MHz for ^13C) in CDCl3 or DMSO-d6 solutions at room temperature. Mass spectra were acquired with a GCT CA127 Micronass UK instrument. X-ray crystallographic data of compound 12a were collected on a Bruker Smart APEX II diffractometer (Bruker Co., Germany) and deposited at the Cambridge Crystallographic Data Centre as supplementary publication (no. CCDC 1063679). HPLC analysis was performed on a Shimadzu SCL-20 AVP equipped with a Bioscan Flow Count 3200 NaI/PMT γ-radiation scintillation detector and a SPD-20A UV detector, λ = 254 nm. A Venusil MP C18 reverse phase column (Agela Technologies, 5 μm, 4.6 × 250 mm) was used for separations and purity determinations with a binary gradient system (acetonitrile: water = 80%: 20%) at a 1.0 mL/min flow rate. Fluorescent observation was performed on the Axio Observer Z1 inverted fluorescence microscope (Zeiss, Germany) equipped with a DAPI filter set (excitation, 405 nm). Post-mortem brain sections from an autopsy-confirmed AD subject and a control subject were acquired from the Chinese Brain Bank. Transgenic mice (APPswe/PSEN1, male) and wild-type mice (C57BL6, male) were purchased from the Institute of Laboratory Animal Science, Chinese Academy of Medical Sciences. Normal ICR mice (20–22 g, male) were used for in vivo biodistribution, dynamic PET/CT and SPECT/CT scans, and biostability experiments. All experiments on mice were performed in accordance with the guidelines approved by the animal care committee of Beijing Normal University and Xiamen University."}
{"compound": "[18F]CCOc1ccc(OCc2ccc(I)cc2)cc1", "note": "[[^18F]7a]", "values": [{"measurement": "brain2 min/brain60 min ratio", "value": 1.8}, {"measurement": "Biodistribution of radioactivity, blood", "setting": "2 min", "value": "5.99 ± 0.16", "unit": "% injected dose per gram"}, {"measurement": "Biodistribution of radioactivity, bone", "setting": "2 min", "value": "2.53 ± 0.43", "unit": "% injected dose per gram"}, {"measurement": "Biodistribution of radioactivity, brain", "setting": "2 min", "value": "> 5", "unit": "% injected dose per gram"}, {"measurement": "Biodistribution of radioactivity, heart", "setting": "2 min", "value": "9.32 ± 0.27", "unit": "% injected dose per gram"}, {"measurement": "Biodistribution of radioactivity, intestine", "setting": "2 min", "value": "6.38 ± 1.04", "unit": "% injected dose per organ"}, {"measurement": "Biodistribution of radioactivity, kidney", "setting": "2 min", "value": "12.70 ± 0.69", "unit": "% injected dose per gram"}, {"measurement": "Biodistribution of radioactivity, liver", "setting": "2 min", "value": "17.83 ± 1.41", "unit": "% injected dose per gram"}, {"measurement": "Biodistribution of radioactivity, lung", "setting": "2 min", "value": "9.34 ± 0.45", "unit": "% injected dose per gram"}, {"measurement": "Biodistribution of radioactivity, muscle", "setting": "2 min", "value": "5.03 ± 0.63", "unit": "% injected dose per gram"}, {"measurement": "Biodistribution of radioactivity, pancreas", "setting": "2 min", "value": "8.18 ± 0.79", "unit": "% injected dose per gram"}, {"measurement": "Biodistribution of radioactivity, spleen", "setting": "2 min", "value": "5.92 ± 1.30", "unit": "% injected dose per gram"}, {"measurement": "Biodistribution of radioactivity, stomach", "setting": "2 min", "value": "1.55 ± 0.11", "unit": "% injected dose per organ"}, {"measurement": "Biodistribution of radioactivity, brain", "setting": "2 min, listed as [18F]7a", "value": "6.14 ± 0.52", "unit": "% injected dose per gram"}, {"measurement": "Biodistribution of radioactivity, blood", "setting": "10 min", "value": "4.29 ± 0.14", "unit": "% injected dose per gram"}, {"measurement": "Biodistribution of radioactivity, bone", "setting": "10 min", "value": "1.55 ± 0.50", "unit": "% injected dose per gram"}, {"measurement": "Biodistribution of radioactivity, brain", "setting": "10 min", "value": "4.78 ± 0.11", "unit": "% injected dose per gram"}, {"measurement": "Biodistribution of radioactivity, heart", "setting": "10 min", "value": "4.03 ± 0.34", "unit": "% injected dose per gram"}, {"measurement": "Biodistribution of radioactivity, intestine", "setting": "10 min", "value": "5.38 ± 0.33", "unit": "% injected dose per organ"}, {"measurement": "Biodistribution of radioactivity, kidney", "setting": "10 min", "value": "7.69 ± 1.15", "unit": "% injected dose per gram"}, {"measurement": "Biodistribution of radioactivity, liver", "setting": "10 min", "value": "6.07 ± 0.27", "unit": "% injected dose per gram"}, {"measurement": "Biodistribution of radioactivity, lung", "setting": "10 min", "value": "4.63 ± 0.35", "unit": "% injected dose per gram"}, {"measurement": "Biodistribution of radioactivity, muscle", "setting": "10 min", "value": "3.46 ± 0.19", "unit": "% injected dose per gram"}, {"measurement": "Biodistribution of radioactivity, pancreas", "setting": "10 min", "value": "3.96 ± 0.15", "unit": "% injected dose per gram"}, {"measurement": "Biodistribution of radioactivity, spleen", "setting": "10 min", "value": "3.33 ± 0.20", "unit": "% injected dose per gram"}, {"measurement": "Biodistribution of radioactivity, stomach", "setting": "10 min", "value": "1.24 ± 0.13", "unit": "% injected dose per organ"}, {"measurement": "Biodistribution of radioactivity, blood", "setting": "30 min", "value": "4.36 ± 0.20", "unit": "% injected dose per gram"}, {"measurement": "Biodistribution of radioactivity, bone", "setting": "30 min", "value": "2.70 ± 0.48", "unit": "% injected dose per gram"}, {"measurement": "Biodistribution of radioactivity, brain", "setting": "30 min", "value": "3.85 ± 0.24", "unit": "% injected dose per gram"}, {"measurement": "Biodistribution of radioactivity, heart", "setting": "30 min", "value": "4.20 ± 0.52", "unit": "% injected dose per gram"}, {"measurement": "Biodistribution of radioactivity, intestine", "setting": "30 min", "value": "5.95 ± 0.89", "unit": "% injected dose per organ"}, {"measurement": "Biodistribution of radioactivity, kidney", "setting": "30 min", "value": "6.12 ± 0.79", "unit": "% injected dose per gram"}, {"measurement": "Biodistribution of radioactivity, liver", "setting": "30 min", "value": "4.31 ± 0.32", "unit": "% injected dose per gram"}, {"measurement": "Biodistribution of radioactivity, lung", "setting": "30 min", "value": "4.21 ± 0.18", "unit": "% injected dose per gram"}, {"measurement": "Biodistribution of radioactivity, muscle", "setting": "30 min", "value": "3.82 ± 0.40", "unit": "% injected dose per gram"}, {"measurement": "Biodistribution of radioactivity, pancreas", "setting": "30 min", "value": "3.62 ± 0.30", "unit": "% injected dose per gram"}, {"measurement": "Biodistribution of radioactivity, spleen", "setting": "30 min", "value": "3.38 ± 0.23", "unit": "% injected dose per gram"}, {"measurement": "Biodistribution of radioactivity, stomach", "setting": "30 min", "value": "1.82 ± 0.48", "unit": "% injected dose per organ"}, {"measurement": "Biodistribution of radioactivity, blood", "setting": "60 min", "value": "4.97 ± 0.12", "unit": "% injected dose per gram"}, {"measurement": "Biodistribution of radioactivity, bone", "setting": "60 min", "value": "4.16 ± 0.59", "unit": "% injected dose per gram"}, {"measurement": "Biodistribution of radioactivity, brain", "setting": "60 min", "value": 3.48, "unit": "% injected dose per gram"}, {"measurement": "Biodistribution of radioactivity, heart", "setting": "60 min", "value": "4.26 ± 0.13", "unit": "% injected dose per gram"}, {"measurement": "Biodistribution of radioactivity, intestine", "setting": "60 min", "value": "8.13 ± 1.01", "unit": "% injected dose per organ"}, {"measurement": "Biodistribution of radioactivity, kidney", "setting": "60 min", "value": "4.77 ± 0.52", "unit": "% injected dose per gram"}, {"measurement": "Biodistribution of radioactivity, liver", "setting": "60 min", "value": "3.84 ± 0.21", "unit": "% injected dose per gram"}, {"measurement": "Biodistribution of radioactivity, lung", "setting": "60 min", "value": "4.32 ± 0.17", "unit": "% injected dose per gram"}, {"measurement": "Biodistribution of radioactivity, muscle", "setting": "60 min", "value": "4.31 ± 0.38", "unit": "% injected dose per gram"}, {"measurement": "Biodistribution of radioactivity, pancreas", "setting": "60 min", "value": "2.89 ± 0.37", "unit": "% injected dose per gram"}, {"measurement": "Biodistribution of radioactivity, spleen", "setting": "60 min", "value": "3.28 ± 0.29", "unit": "% injected dose per gram"}, {"measurement": "Biodistribution of radioactivity, stomach", "setting": "60 min", "value": "1.58 ± 0.18", "unit": "% injected dose per organ"}, {"measurement": "Biodistribution of radioactivity, brain", "setting": "60 min, listed as [18F]7a", "value": "3.48 ± 0.12", "unit": "% injected dose per gram"}]}
